From patent publication US10934282B2, “Heteroaromatic modulators of the retinoid-related orphan receptor gamma” (LEO PHARMA A/S, priority 2016, dated 2021)

Legend:
[1] = tested on: IL-17A in Human peripheral mononuclear cells; experiment: Human PBMC IL-17A assay; assay type: cell-based; details: 72 h, EC50, antiCD3/antiCD28-coated beads, 3 days, alpha-LISA
Protocol: This assay measures the IL-17A inhibitory potential of test compounds in Human peripheral mononuclear cells.
Peripheral blood mononuclear cells (PBMC) were isolated from human buffy coats using density grade centrifugation (Lymphoprep, Medinor), washed twice in PBS and frozen at −150° C. for later use.
Test compounds were diluted in DMSO and 70 nL of titrated test and reference compounds were transferred by the Echo liquid handling system to a 384-well assay plate in to give a final concentration of 0.1% DMSO in the wells.
The PBMC were thawed, washed and suspended in RPMI-1640 supplemented with pen/strep, glutamax and 10% bovine calf serum. The cells were mixed with antiCD3/antiCD28-coated beads (1 cells pr one bead) (Milteney T-cell expansion kit), and immediately thereafter the cells were pipetted to the plate at 130,000c/well. The plate was incubated for 3 days in humidified air/CO2 (95%/5%) On day 3 the level of IL-17A in the culture supernatant is measured using alpha-LISA kit (Perkin Elmer). Cell viability was measured by adding 6 uL pr well Prestoblue© (Life Technologies) and incubating for 2 hours followed by fluorescent measurement (Ex535/Em615). EC50 values were calculated using a 4-parameter non-linear regression curve-fitting model. Donors may be pre-screened in order to select PBMC with a high secretion of IL-17A.

[2] = tested on: IL-17A levels in human peripheral blood; experiment: tissue or blood; assay type: cell-based; details: 72 h, read-out: Human Whole blood IL-17A (nM)
[3] = molecular target: T1, human RORgt nuclear receptor (RORgT ligand binding domain protein) (Homo sapiens, UniProt P51449); experiment: ROR-gamma binding assay (Scintillation Proximity Assay, displacement of [3H]-25-hydroxycholesterol); details: EC50, SPA, 15 nM [3H]-25-Hydroxycholesterol, RORgT LBD 12 nM
T1 construct: purchased Proteros Biostructures GmbH
T1 sequence (P51449 with tags, fused parts or gaps): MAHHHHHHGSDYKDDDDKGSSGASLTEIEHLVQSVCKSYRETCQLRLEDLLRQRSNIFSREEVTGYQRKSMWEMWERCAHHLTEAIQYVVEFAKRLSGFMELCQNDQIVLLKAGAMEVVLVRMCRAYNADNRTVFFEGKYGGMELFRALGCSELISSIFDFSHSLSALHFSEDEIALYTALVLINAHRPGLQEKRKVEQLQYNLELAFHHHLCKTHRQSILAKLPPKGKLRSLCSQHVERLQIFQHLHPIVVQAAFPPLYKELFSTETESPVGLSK
Protocol: This assay is used to evaluate the binding affinity of compounds to the ligand-binding pocket of the human RORgt nuclear receptor based on displacement of a radio-ligand. The EC50 values are calculated using a four parameter fit. Compounds binding with high affinity to RORgt will have low EC50 values.
The assay is a Scintillation Proximity Assay (SPA) that involves competition between an unlabeled test compound and tritium-labeled 25-hydroxycholesterol for binding to RORgT ligand binding domain (LBD) protein immobilized on the surface of SPA beads. These beads contain a scintillant that emits light if excited by a radioactive particle, and this light is detected using a scintillation counter. In this assay, tritium-labelled 25-hydroxycholesterol is used as radiotracer.
400 nL of titrated test and reference compounds in DMSO were transferred by the Echo liquid handling system to a 384-well assay plate followed by addition of 5 μL [3H]-25-Hydroxycholesterol (Perkin Elmer) and 35 μL diluted RORgT LBD protein with the following amino acid sequence (HIS-FLG-tag): MAHHHHHHGSDYKDDDDKGSSGASLTEIEHLVQSVCKSYRETCQLRLEDLLRQRSNIFSREEVTGYQRKSMWEMWERCAHHLTEAIQYVVEFAKRLSGFMELCQNDQIVLLKAGAMEVVLVRMCRAYNADNRTVFFEGKYGGMELFRALGCSELISSIFDFSHSLSALHFSEDEIALYTALVLINAHRPGLQEKRKVEQLQYNLELAFHHHLCKTHRQSILAKLPPKGKLRSLCSQHVERLQIFQHLHPIVVQAAFPPLYKELFSTETESPVGLSK (SEQ ID NO: 1) (Purchased from Proteros Biostructures GmbH). After 30 min of preincubation, 40 μL of HIS-TAG PVT SPA beads (Perkin Elmer) were added. The plates were then incubated for minimum 4 hours at room temperature in darkness before measuring the SPA signal using a MicroBeta plate scintillation counter. Final assay conditions were: 50 mM HEPES pH 7.4, 150 mM NaCl, 5 mM MgCl2, 0.1% BSA, 4 μg/well HIS-TAG PVT SPA Beads, 30 ng/well RORgT LBD (equal to a final concentration of 12 nM), 15 nM [^3H]-25-Hydroxycholesterol, 0.5% DMSO and varying concentrations of test compound in a total volume of 80 μL/well. EC50 values were calculated using a 4-parameter non-linear regression curve-fitting model.

Compound | EC50 [1] [nM] | EC50 [2] [nM] | EC50 [3] [nM]
Cc1cc(CN2CCN(C(=O)C3CC3C)[C@@H](C)C2)c(C)c(Nc2nnc([C@@H](C)O)o2)c1 (stereo partly drawn) [Example 23, [(2S)-4-[[3-[[5-[(1R)-1-hydroxyethyl]-1,3,4-oxadiazol-2-yl]amino]-2,5-dimethyl-phenyl]methyl]-2-methyl-piperazin-1-yl]-(2-methylcyclopropyl)methanone] | 368 | 238 | 125
Cc1cc(CN2CCN(C(=O)C3CCCC3)[C@@H](C)C2)c(C)c(Nc2nnc([C@@H](C)O)o2)c1 [Example 24, cyclopentyl-[(2S)-4-[[3-[[5-[(1R)-1-hydroxyethyl]-1,3,4-oxadiazol-2-yl]amino]-2,5-dimethyl-phenyl]methyl]-2-methyl-piperazin-1-yl]methanone] | 35.9 | 112 | 38.6
Cc1cc(CN2CCN(C(=O)C3CCC(F)(F)C3)[C@@H](C)C2)c(C)c(Nc2nnc([C@@H](C)O)o2)c1 (stereo partly drawn) [Example 25, (3,3-difluorocyclopentyl)-[(2S)-4-[[3-[[5-[(1R)-1-hydroxyethyl]-1,3,4-oxadiazol-2-yl]amino]-2,5-dimethyl-phenyl]methyl]-2-methyl-piperazin-1-yl]methanone] | 258 | 191 | 159
Cc1cc(CN2CCN(C(=O)CC3CCC3)[C@@H](C)C2)c(C)c(Nc2nnc([C@@H](C)O)o2)c1 [Example 26, 2-cyclobutyl-1-[(2S)-4-[[3-[[5-[(1R)-1-hydroxyethyl]-1,3,4-oxadiazol-2-yl]amino]-2,5-dimethyl-phenyl]methyl]-2-methyl-piperazin-1-yl]ethanone] | 91.3 | 119 | 58.2
Cc1c(CN2CCN(C(=O)C3CCC3)[C@@H](C)C2)cc(C(F)F)cc1Nc1nnc([C@H](C)O)o1 [Example 27, cyclobutyl-[(2S)-4-[[5-(difluoromethyl)-3-[[5-[(1S)-1-hydroxyethyl]-1,3,4-oxadiazol-2-yl]amino]-2-methyl-phenyl]methyl]-2-methyl-piperazin-1-yl]methanone] | 425 | 457 | 95.9
Cc1cc(CN2CCN(C(=O)OC(C)(C)C)[C@@H](C)C2)c(C)c(Nc2nnc([C@H]3C[C@@H](O)C3)o2)c1 [Example 29, tert-butyl (2S)-4-[[3-[[5-(3-hydroxycyclobutyl)-1,3,4-oxadiazol-2-yl]amino]-2,5-dimethyl-phenyl]methyl]-2-methyl-piperazine-1-carboxylate] | 117 | 422 | 37.8
Cc1cc(CN2CCN(C(=O)OC(C)(C)C)[C@@H](C)C2)c(C)c(Nc2nnc(-c3cnnn3C)o2)c1 [Example 30, tert-butyl (2S)-4-[[2,5-dimethyl-3-[[5-(3-methyltriazol-4-yl)-1,3,4-oxadiazol-2-yl]amino]phenyl]methyl]-2-methyl-piperazine-1-carboxylate] | 93.6 | 239 | 31.2
Cc1cc(CN2CCN(C(=O)OC(C)(C)C)[C@@H](C)C2)c(C)c(Nc2nnc(-c3ccnn3C)o2)c1 [Example 31, tert-butyl (2S)-4-[[2,5-dimethyl-3-[[5-(2-methylpyrazol-3-yl)-1,3,4-oxadiazol-2-yl]amino]phenyl]methyl]-2-methyl-piperazine-1-carboxylate] | 63.5 | 231 | 32.4
Cc1cc(CN2CCN(C(=O)OC(C)(C)C)[C@@H](C)C2)c(C)c(Nc2nnc(-c3ccno3)o2)c1 [Example 32, tert-butyl (2S)-4-[[3-[(5-isoxazol-5-yl-1,3,4-oxadiazol-2-yl)amino]-2,5-dimethyl-phenyl]methyl]-2-methyl-piperazine-1-carboxylate] | 101 | 392 | 26.4
Cc1cc(CN2CCN(C(=O)OC(C)(C)C)[C@@H](C)C2)c(C)c(Nc2nnc(-c3cnsn3)o2)c1 [Example 33, tert-butyl (2S)-4-[[2,5-dimethyl-3-[[5-(1,2,5-thiadiazol-3-yl)-1,3,4-oxadiazol-2-yl]amino]phenyl]methyl]-2-methyl-piperazine-1-carboxylate] | 45.2 | 126 | 23.3
Cc1cc(CN2CCN(C(=O)OC(C)(C)C)[C@@H](C)C2)c(C)c(Nc2nnc(-c3nonc3C)o2)c1 [Example 34, tert-butyl (2S)-4-[[2,5-dimethyl-3-[[5-(4-methyl-1,2,5-oxadiazol-3-yl)-1,3,4-oxadiazol-2-yl]amino]phenyl]methyl]-2-methyl-piperazine-1-carboxylate] | 24.8 | 83.7 | 24.6
Cc1cc(CN2CCN(C(=O)OC(C)C)[C@@H](C)C2)c(C)c(Nc2nnc(C)o2)c1 [Example 35, isopropyl (2S)-4-[[2,5-dimethyl-3-[(5-methyl-1,3,4-oxadiazol-2-yl)amino]phenyl]methyl]-2-methyl-piperazine-1-carboxylate] | 106 | 499 | 33.9
Cc1cc(CN2CCN(C(=O)OC(C)C)[C@@H](C)C2)c(C)c(Nc2nnc([C@@H](N)CO)o2)c1 [Example 36, isopropyl (2S)-4-[[3-[[5-[(1S)-1-amino-2-hydroxy-ethyl]-1,3,4-oxadiazol-2-yl]amino]-2,5-dimethyl-phenyl]methyl]-2-methyl-piperazine-1-carboxylate] | 366 | 451 | 84.1
Cc1cc(CN2CCN(C(=O)OC(C)C)[C@@H](C)C2)c(C)c(Nc2nnc([C@H]3C[C@@H](O)C3)o2)c1 [Example 37, isopropyl (2S)-4-[[3-[[5-(3-hydroxycyclobutyl)-1,3,4-oxadiazol-2-yl]amino]-2,5-dimethyl-phenyl]methyl]-2-methyl-piperazine-1-carboxylate] | 43.7 | 426 | 40.8
CC[C@H](N)c1nnc(Nc2cc(Cl)cc(CN3CCN(C(=O)OC(C)C)[C@@H](C)C3)c2C)o1 [Example 38, isopropyl (2S)-4-[[3-[[5-[(1S)-1-aminopropyl]-1,3,4-oxadiazol-2-yl]amino]-5-chloro-2-methyl-phenyl]methyl]-2-methyl-piperazine-1-carboxylate] | 58.5 | 403 | 49.7
Cc1c(CN2CCN(C(=O)OC(C)C)[C@@H](C)C2)cc(Cl)cc1Nc1nnc([C@@H](C)O)o1 [Example 39, isopropyl (2S)-4-[[5-chloro-3-[[5-[(1R)-1-hydroxyethyl]-1,3,4-oxadiazol-2-yl]amino]-2-methyl-phenyl]methyl]-2-methyl-piperazine-1-carboxylate] | 38.2 | 377 | 29.2
Cc1c(CN2CCN(C(=O)OC(C)C)[C@@H](C)C2)cc(Cl)cc1Nc1nnc(C2COC2)o1 [Example 40, isopropyl (2S)-4-[[5-chloro-2-methyl-3-[[5-(oxetan-3-yl)-1,3,4-oxadiazol-2-yl]amino]phenyl]methyl]-2-methyl-piperazine-1-carboxylate] | 212 | 365 | 21.2
